Key:
[1] = target: T1, Pancreatic triacylglycerol lipase (Homo sapiens) (UniProt P16233); test: Inhibition of Pancreatic lipase (unknown origin) using 4-methylumbelleallyl oleate as substrate at 50 uM by microplate reader assay
T1 sequence (whole entry): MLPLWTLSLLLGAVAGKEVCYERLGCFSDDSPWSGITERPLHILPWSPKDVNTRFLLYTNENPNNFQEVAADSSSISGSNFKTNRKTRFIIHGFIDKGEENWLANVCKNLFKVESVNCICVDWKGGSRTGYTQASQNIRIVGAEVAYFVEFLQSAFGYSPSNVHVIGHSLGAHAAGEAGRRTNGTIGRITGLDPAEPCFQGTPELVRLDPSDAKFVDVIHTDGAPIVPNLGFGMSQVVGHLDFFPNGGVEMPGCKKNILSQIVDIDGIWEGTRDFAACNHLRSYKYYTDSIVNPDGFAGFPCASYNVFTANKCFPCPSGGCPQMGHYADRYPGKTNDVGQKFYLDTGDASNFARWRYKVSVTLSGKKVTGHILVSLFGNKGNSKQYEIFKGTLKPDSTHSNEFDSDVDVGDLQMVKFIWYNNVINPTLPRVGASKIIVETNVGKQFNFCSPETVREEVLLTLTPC

HepG2 [2] = test: Cytotoxicity against human HepG2 cells assessed as reduction in cell survival at 50 uM; format: toxicity, cell-based; settings: hepg2, 50 µM
HepG2 [3] = test: Hypolipidemic activity in sodium oleate and sodium palmitate induced human HepG2 cells assessed as decrease in intracellular lipid content at 50 uM by Oil Red O staining based assay; format: functional; set-up: scale not given: the % may be the effect or the level left
HepG2 [4] = test: Hypolipidemic activity in sodium oleate and sodium palmitate induced human HepG2 cells assessed as decrease in intracellular lipid content at 5 uM by Oil Red O staining based assay; format: functional; set-up: scale not given: the % may be the effect or the level left
HepG2 [5] = test: Hypolipidemic activity in sodium oleate and sodium palmitate induced human HepG2 cells assessed as decrease in intracellular lipid content at 0.025 mg/ml by Oil Red O staining based assay; format: functional; set-up: scale not given: the % may be the effect or the level left
[6] = target: T1, Pancreatic triacylglycerol lipase (Homo sapiens); test: Inhibition of Pancreatic lipase (unknown origin) using 4-methylumbelleallyl oleate as substrate at 5 uM by microplate reader assay

inhibition [1] [%]	inhibition [6] [%]	SMILES	Activity (HepG2 [2])	Activity (HepG2 [3]) [%]	Activity (HepG2 [4]) [%]	Activity (HepG2 [5]) [%]
65.8		O=C(O)CC(=O)OC[C@H]1O[C@@H](Oc2cc(O)c3c(=O)cc(-c4ccc(O)c(O)c4)oc3c2)[C@H](O)[C@@H](O)[C@@H]1O	Non-Toxic	57.1	61.5	
		CC[C@H](C)C(=O)O[C@H]1C[C@@H](C)C=C2C=C[C@H](C)[C@H](CC[C@@H]3C[C@@H](O)CC(=O)O3)[C@H]21 [LOVASTATIN]		89.3	76.9	97
49.5	18.1	O=c1cc(-c2ccc(O)c(O)c2)oc2cc(O[C@@H]3O[C@H](CO)[C@@H](O)[C@H](O)[C@H]3O)cc(O)c12 [GALUTEOLIN]	Non-Toxic	53.2	62.5	

From ChEMBL document CHEMBL5321223, “Effects and mechanism of action of Chrysanthemum morifolium (Jinsi Huangju) on hyperlipidemia and non-alcoholic fatty liver disease” (Eur J Med Chem, 2023)
